# Results reported in PubChem BioAssay AID1963863 (Molecular Pharmacology Branch, DTP, NCI, 2024).
# pIC50: −log10 of the molar value.
# Test system: 931267-113-T-J1-PDC KRAS spheroid with HUVEC/MSC, viability
# Assay: Anticancer human tumor 931267-113-T-J1-PDC patient-derived colon adenocarcinoma cell line growth inhibition [KRAS2]
# Details: for pIC50: curve of first compound; for viability, T/C: stronger effect = lower value
# In short: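 KRAS-mutant tumor cells were grown as spheroids with HUVEC endothelial cells and human MSCs as stroma. Targeted agents were tested alone and with KRAS pathway inhibitors. Doses started at or near clinical Cmax, or 10 microM, descending half-log.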
# [1] = second compound 0.0316 µM, first compound 0.000316 µM
# [2] = second compound 0.0316 µM, first compound 0.001 µM
# [3] = second compound 0.0316 µM, first compound 0.00316 µM
# [4] = second compound 0.0316 µM, first compound 0.01 µM
# [5] = second compound 0.0316 µM, first compound 0.0316 µM
# [6] = second compound 0.1 µM, first compound 0.000316 µM
# [7] = second compound 0.1 µM, first compound 0.001 µM
# [8] = second compound 0.1 µM, first compound 0.00316 µM
# [9] = second compound 0.1 µM, first compound 0.01 µM
# [10] = second compound 0.1 µM, first compound 0.0316 µM
# [11] = second compound 0.316 µM, first compound 0.000316 µM
# [12] = second compound 0.316 µM, first compound 0.001 µM
# [13] = second compound 0.316 µM, first compound 0.00316 µM
# [14] = second compound 0.316 µM, first compound 0.01 µM
# [15] = second compound 0.316 µM, first compound 0.0316 µM
# [16] = second compound 1 µM, first compound 0.000316 µM
# [17] = second compound 1 µM, first compound 0.001 µM
# [18] = second compound 1 µM, first compound 0.00316 µM
# [19] = second compound 1 µM, first compound 0.01 µM
# [20] = second compound 1 µM, first compound 0.0316 µM
# [21] = second compound 3.16 µM, first compound 0.000316 µM
# [22] = second compound 3.16 µM, first compound 0.001 µM
# [23] = second compound 3.16 µM, first compound 0.00316 µM
# [24] = second compound 3.16 µM, first compound 0.01 µM
# [25] = second compound 3.16 µM, first compound 0.0316 µM
# [26] = second compound 0.0316 µM, first compound 0.1 µM
# [27] = second compound 0.1 µM, first compound 0.1 µM
# [28] = second compound 0.316 µM, first compound 0.1 µM
# [29] = second compound 1 µM, first compound 0.1 µM
# [30] = second compound 3.16 µM, first compound 0.1 µM
# 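Note: compound exposure lasted 7 days before the readout.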
# 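Throughout, for viability, T/C: 100% = DMSO vehicle control viability.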
compound,measurement,setting,value
CC(=O)Nc1cccc(-n2c(=O)n(C3CC3)c(=O)c3c(Nc4ccc(I)cc4F)n(C)c(=O)c(C)c32)c1 + C=CC(=O)N1CCN(c2nc(OCC3CCCN3C)nc3c2CCN(c2cccc4cccc(C)c24)C3)CC1CC#N,pIC50,second compound 0.0316 µM,8.20
same,pIC50,second compound 0.1 µM,7.92
same,pIC50,second compound 0.316 µM,8.35
same,pIC50,second compound 1 µM,8.83
same,pIC50,second compound 3.16 µM,> 10.00
same,"viability, T/C","second compound 0.0316 µM, first compound 0.0001 µM",98.9%
same,"viability, T/C",[1],78%
same,"viability, T/C",[2],69.3%
same,"viability, T/C",[3],54.7%
same,"viability, T/C",[4],60.3%
same,"viability, T/C",[5],13.2%
same,"viability, T/C","second compound 0.1 µM, first compound 0.0001 µM",83%
same,"viability, T/C",[6],82.4%
same,"viability, T/C",[7],64.2%
same,"viability, T/C",[8],72.6%
same,"viability, T/C",[9],59.5%
same,"viability, T/C",[10],8.65%
same,"viability, T/C","second compound 0.316 µM, first compound 0.0001 µM",69.7%
same,"viability, T/C",[11],83%
same,"viability, T/C",[12],54.9%
same,"viability, T/C",[13],53.8%
same,"viability, T/C",[14],42.7%
same,"viability, T/C",[15],9.24%
same,"viability, T/C","second compound 1 µM, first compound 0.0001 µM",74.7%
same,"viability, T/C",[16],59.8%
same,"viability, T/C",[17],45.9%
same,"viability, T/C",[18],52.9%
same,"viability, T/C",[19],28.2%
same,"viability, T/C",[20],9.56%
same,"viability, T/C","second compound 3.16 µM, first compound 0.0001 µM",0.22%
same,"viability, T/C",[21],0.24%
same,"viability, T/C",[22],0.28%
same,"viability, T/C",[23],0.24%
same,"viability, T/C",[24],0.21%
same,"viability, T/C",[25],0.25%
CC(C)n1nc(-c2ccc3oc(N)nc3c2)c2c(N)ncnc21 + C=CC(=O)N1CCN(c2nc(OCC3CCCN3C)nc3c2CCN(c2cccc4cccc(C)c24)C3)CC1CC#N,pIC50,second compound 0.0316 µM,8.14
same,pIC50,second compound 0.1 µM,8.21
same,pIC50,second compound 0.316 µM,8.14
same,pIC50,second compound 1 µM,8.24
same,pIC50,second compound 3.16 µM,> 9.50
same,"viability, T/C",[1],91.9%
same,"viability, T/C",[2],89.1%
same,"viability, T/C",[3],71.1%
same,"viability, T/C",[4],41.9%
same,"viability, T/C",[5],26.6%
same,"viability, T/C",[26],21.8%
same,"viability, T/C",[6],111%
same,"viability, T/C",[7],91.8%
same,"viability, T/C",[8],65.2%
same,"viability, T/C",[9],40.7%
same,"viability, T/C",[10],22.6%
same,"viability, T/C",[27],19.9%
same,"viability, T/C",[11],89.6%
same,"viability, T/C",[12],95.9%
same,"viability, T/C",[13],67.1%
same,"viability, T/C",[14],44.6%
same,"viability, T/C",[15],22.7%
same,"viability, T/C",[28],18.3%
same,"viability, T/C",[16],106%
same,"viability, T/C",[17],78.2%
same,"viability, T/C",[18],62.9%
same,"viability, T/C",[19],41.6%
same,"viability, T/C",[20],24.8%
same,"viability, T/C",[29],21.6%
same,"viability, T/C",[21],18.4%
same,"viability, T/C",[22],0.63%
same,"viability, T/C",[23],13.2%
same,"viability, T/C",[24],0.24%
same,"viability, T/C",[25],0.27%
same,"viability, T/C",[30],1.47%
COC(=O)c1ccc2c(C(=Nc3ccc(N(C)C(=O)CN4CCN(C)CC4)cc3)c3ccccc3)c(O)[nH]c2c1 + C=CC(=O)N1CCN(c2nc(OCC3CCCN3C)nc3c2CCN(c2cccc4cccc(C)c24)C3)CC1CC#N,pIC50,second compound 0.0316 µM,6.17
same,pIC50,second compound 0.1 µM,5.93
same,pIC50,second compound 0.316 µM,6.19
same,pIC50,second compound 1 µM,6.92
same,pIC50,second compound 3.16 µM,> 7.50
same,"viability, T/C",[5],90.5%
same,"viability, T/C",[26],87.1%
same,"viability, T/C","second compound 0.0316 µM, first compound 0.316 µM",61.1%
same,"viability, T/C","second compound 0.0316 µM, first compound 1 µM",50.7%
same,"viability, T/C","second compound 0.0316 µM, first compound 3.16 µM",0.59%
same,"viability, T/C","second compound 0.0316 µM, first compound 10 µM",0.32%
same,"viability, T/C",[10],73.9%
same,"viability, T/C",[27],76.4%
same,"viability, T/C","second compound 0.1 µM, first compound 0.316 µM",64.5%
same,"viability, T/C","second compound 0.1 µM, first compound 1 µM",57.8%
same,"viability, T/C","second compound 0.1 µM, first compound 3.16 µM",0.37%
same,"viability, T/C","second compound 0.1 µM, first compound 10 µM",0.38%
same,"viability, T/C",[15],95%
same,"viability, T/C",[28],88.8%
same,"viability, T/C","second compound 0.316 µM, first compound 0.316 µM",67.6%
same,"viability, T/C","second compound 0.316 µM, first compound 1 µM",42.8%
same,"viability, T/C","second compound 0.316 µM, first compound 3.16 µM",0.3%
same,"viability, T/C","second compound 0.316 µM, first compound 10 µM",0.2%
same,"viability, T/C",[20],47.2%
same,"viability, T/C",[29],63.7%
same,"viability, T/C","second compound 1 µM, first compound 0.316 µM",20.4%
same,"viability, T/C","second compound 1 µM, first compound 1 µM",0.52%
same,"viability, T/C","second compound 1 µM, first compound 3.16 µM",0.13%
same,"viability, T/C","second compound 1 µM, first compound 10 µM",0.19%
same,"viability, T/C",[25],0.24%
same,"viability, T/C",[30],0.16%
same,"viability, T/C","second compound 3.16 µM, first compound 0.316 µM",0.25%
same,"viability, T/C","second compound 3.16 µM, first compound 1 µM",0.15%
same,"viability, T/C","second compound 3.16 µM, first compound 3.16 µM",0.21%
same,"viability, T/C","second compound 3.16 µM, first compound 10 µM",0.22%
